Measured values: patent US20170079267A1, “SEX PHEROMONE COMPOSITION OF PEACH FRUIT MOTH AND ATTRACTANT COMPRISING THE SAME” (SHIN-ETSU CHEMICAL CO., LTD., priority 2011, published 2017)

Test system: antenna of a male adult of peach fruit moth
Test: GC-EAD (electroantennographic detection) of the extract of peach fruit moth
Parameters: species or system Carposina sasakii
Settings: GC-EAD of pheromone gland extract; male adult 3 to 5 days after eclosion
Description: An EAD chart of the extract of peach fruit moth (Carposina sasakii) is shown in FIG. 1A and a GC chart of the extract is shown in FIG. 1B. […] In FIG. 1B, the peaks for components (5) and (6) were at the detection limit or less so that they were not detected.
In this time zone, the pheromone gland was excised from a virgin female adult (2 to 3 days old) under a microscope and immersed in n-hexane for 30 minutes. Then the insect body tissues were removed from the extraction liquid by filtration to produce an extract of peach fruit moth.
A GC-EAD (Gas Chromatography-Electroantennographic Detection) chart of the above extract of peach fruit moth is shown in FIG. 1.
Structural analyses of dimethyl disulfide (DMDS) adducts was conducted for each of the unsaturated bond sites of the monoene components. Finally, it was found in comparison with the retention times and mass spectra of the corresponding synthesized products that the components (1) to (6) were docosane, tricosane, (Z)-7-tricosene, (Z)-5-pentacosene, (Z)-12-nonadecen-9-one and (Z)-7-heneicosen-11-one, respectively, and the mixing weight ratio thereof was 6:341:432:36:2:8 with respect to 100 of (Z)-13-eicosen-10-one. FIGS. 2 to 7 show the mass spectra of the components (1) to (6) in the extract of peach fruit moth, while FIGS. 8 to 13 show the mass spectra of the commercial products and synthesized compounds.

CCCCCC/C=C\CCC(=O)CCCCCCCCC [(Z)-13-eicosen-10-one]
potential response of the antenna of a male adult (EAD): showed a potential response
